Laboratory results published in ChEMBL document CHEMBL1131843, “Synthesis and biological evaluation of novel 1beta-methylcarbapenems having a new moiety at C-2” (Bioorg Med Chem Lett, 1999).
Values after ≈ are worked out from the molar mass of the structure shown.

Key:
[1] = system: Staphylococcus aureus; test: In vitro antibacterial activity against Staphylococcus aureus SG 511; type: functional
[2] = system: Pseudomonas aeruginosa; test: In vitro antibacterial activity against Pseudomonas aeruginosa 1592E; type: functional
[3] = system: Enterococcus faecium; test: In vitro antibacterial activity against Streptococcus faecium MD 8b; type: functional
[4] = system: Escherichia coli; test: In vitro antibacterial activity against Escherichia coli 078; type: functional
[5] = system: Klebsiella aerogenes; test: In vitro antibacterial activity against Klebsiella aerogenes 1522E; type: functional
[6] = system: Streptococcus pyogenes; test: In vitro antibacterial activity against Streptococcus pyogenes 77A; type: functional
[7] = system: Pseudomonas aeruginosa; test: In vitro antibacterial activity against Pseudomonas aeruginosa 1771M; type: functional
[8] = system: Escherichia coli; test: In vitro antibacterial activity against Escherichia coli 1507E; type: functional
[9] = system: Salmonella typhimurium; test: In vitro antibacterial activity against Salmonella Typhimurium; type: functional, Salmonella enterica subsp. enterica serovar Typhimurium
[10] = system: Enterobacter cloacae; test: In vitro antibacterial activity against Enterobacter cloacae 1321E; type: functional
[11] = biological target: T1, Dipeptidase 1 (Sus scrofa) (UniProt P22412); test: Relative hydrolysis to meropenem by partially purified porcine renal Dehydropeptidase-1 was reported.; set-up: scale not given: the % may be the effect or the level left
T1 sequence (whole entry): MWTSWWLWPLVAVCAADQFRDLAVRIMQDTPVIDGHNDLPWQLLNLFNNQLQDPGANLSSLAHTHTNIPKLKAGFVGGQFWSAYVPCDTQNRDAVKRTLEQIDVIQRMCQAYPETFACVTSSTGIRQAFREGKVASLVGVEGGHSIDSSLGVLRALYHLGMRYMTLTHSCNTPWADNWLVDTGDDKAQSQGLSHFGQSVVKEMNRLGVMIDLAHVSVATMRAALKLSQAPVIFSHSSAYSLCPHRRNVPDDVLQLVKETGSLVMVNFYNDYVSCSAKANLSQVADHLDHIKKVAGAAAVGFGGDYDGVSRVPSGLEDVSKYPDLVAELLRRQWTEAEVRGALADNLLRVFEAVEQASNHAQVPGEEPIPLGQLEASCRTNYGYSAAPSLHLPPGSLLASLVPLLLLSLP

[12] = Area under curve (AUC) was determined in mice at a single subcutaneous administration of 40 mg/kg (n=4); type: ADME, organism-based; set-up: dose 40 mg/kg, route subcutaneous; conditions: mouse, in vivo, sc
[13] = system: Mus musculus; test: In vivo therapeutic efficacy was determined against Staphylococcus aureus Y-80-1953 by a single sc administration in mice; type: functional; conditions: read-out: PD50
[14] = Half life was determined in mice at a single subcutaneous administration of 40 mg/kg (n=4); type: ADME, organism-based; set-up: dose 40 mg/kg, route subcutaneous; conditions: mouse, in vivo, sc
[15] = Maximum time was determined in mice at a single subcutaneous administration of 40 mg/kg (n=4); type: ADME, organism-based; set-up: dose 40 mg/kg, route subcutaneous; conditions: mouse, in vivo, sc
[16] = system: Mus musculus; test: In vivo therapeutic efficacy was determined against Pseudomonas aeruginosa 1771M by a single sc administration in mice; type: functional; conditions: read-out: PD50
[17] = Maximum plasma concentration was determined in mice at a single subcutaneous administration of 40 mg/kg (n=4); type: ADME, organism-based; set-up: dose 40 mg/kg, route subcutaneous; conditions: mouse, sc
[18] = system: Mus musculus; test: In vivo therapeutic efficacy was determined against Escherichia coli 078 by a single sc administration in mice; type: functional; conditions: read-out: PD50
[19] = system: Mus musculus; test: In vivo therapeutic efficacy was determined against Streptococcus pyogenes 77A by a single sc administration in mice; type: functional; conditions: read-out: PD50
[20] = Staphylococcus aureus, read-out: MIC
[21] = Pseudomonas aeruginosa, read-out: MIC
[22] = Enterococcus faecium, read-out: MIC
[23] = Escherichia coli, read-out: MIC
[24] = Klebsiella aerogenes, read-out: MIC
[25] = Streptococcus pyogenes, read-out: MIC
[26] = Salmonella enterica, read-out: MIC
[27] = Enterobacter cloacae, read-out: MIC

MIC [1, 20] [µg/mL]	MIC [2, 21] [µg/mL]	MIC [3, 22] [µg/mL]	MIC [4, 23] [µg/mL]	MIC [5, 24] [µg/mL]	MIC [6, 25] [µg/mL]	MIC [7, 21] [µg/mL]	MIC [8] [µg/mL]	MIC [9, 26] [µg/mL]	MIC [10, 27] [µg/mL]	Compound	Stability [11] [%]	other results
0.195 (≈ 0.442 µM)	100 (≈ 226 µM)	12.5 (≈ 28.3 µM)	0.098 (≈ 0.222 µM)	0.195 (≈ 0.442 µM)	0.013 (≈ 0.0294 µM)	0.391 (≈ 0.886 µM)	0.195 (≈ 0.442 µM)	0.391 (≈ 0.886 µM)	0.195 (≈ 0.442 µM)	C[C@@H](O)[C@H]1C(=O)N2C(C(=O)O)=C(S[C@H]3CN[C@H](C(=O)N4C[C@@H](O)[C@H](O)C4)C3)[C@H](C)[C@H]12	–	–
0.195 (≈ 0.37 µM)	0.781 (≈ 1.48 µM)	6.25 (≈ 11.8 µM)	0.025 (≈ 0.0474 µM)	0.049 (≈ 0.0929 µM)	0.025 (≈ 0.0474 µM)	0.391 (≈ 0.741 µM)	0.025 (≈ 0.0474 µM)	0.049 (≈ 0.0929 µM)	0.025 (≈ 0.0474 µM)	C[C@@H](O)[C@H]1C(=O)N2C(C(=O)O)=C(S[C@@H]3CN[C@H](C(=O)N4C[C@H](OC(N)=O)[C@@H](OC(N)=O)C4)C3)[C@H](C)[C@H]12	53	–
0.195 (≈ 0.371 µM)	0.098 (≈ 0.186 µM)	6.25 (≈ 11.9 µM)	0.013 (≈ 0.0247 µM)	0.049 (≈ 0.0932 µM)	0.007 (≈ 0.0133 µM)	0.098 (≈ 0.186 µM)	0.025 (≈ 0.0476 µM)	0.049 (≈ 0.0932 µM)	0.013 (≈ 0.0247 µM)	CC(=O)O[C@@H]1CN(C(=O)[C@@H]2C[C@H](SC3=C(C(=O)O)N4C(=O)[C@H]([C@@H](C)O)[C@H]4[C@H]3C)CN2)C[C@H]1OC(C)=O	50	–
0.195 (≈ 0.442 µM)	100 (≈ 226 µM)	25 (≈ 56.6 µM)	0.098 (≈ 0.222 µM)	0.195 (≈ 0.442 µM)	0.025 (≈ 0.0566 µM)	0.781 (≈ 1.77 µM)	0.098 (≈ 0.222 µM)	0.195 (≈ 0.442 µM)	0.195 (≈ 0.442 µM)	C[C@@H](O)[C@H]1C(=O)N2C(C(=O)O)=C(S[C@H]3CN[C@H](C(=O)N4C[C@H](O)[C@@H](O)C4)C3)[C@H](C)[C@H]12	–	–
–	–	–	–	–	–	–	–	–	–	CC(=O)O[C@H]1CN(C(=O)[C@@H]2C[C@H](SC3=C(C(=O)O)N4C(=O)[C@H]([C@@H](C)O)[C@H]4[C@H]3C)CN2)C[C@@H]1OC(C)=O (stereo in doubt; 1a) [listing 2 of 2 here]	63	–
–	–	–	–	–	–	–	–	–	–	CC(=O)O[C@H]1CN(C(=O)[C@@H]2C[C@H](SC3=C(C(=O)O)N4C(=O)[C@H]([C@@H](C)O)[C@H]4[C@H]3C)CN2)C[C@@H]1OC(C)=O (stereo in doubt; 1f) [listing 1 of 2 here]	–	MIC [1]: 0.195 µg/mL (≈ 0.371 µM); MIC [2]: 1.563 µg/mL (≈ 2.97 µM); MIC [3]: 6.25 µg/mL (≈ 11.9 µM); MIC [4]: 0.025 µg/mL (≈ 0.0476 µM); MIC [5]: 0.049 µg/mL (≈ 0.0932 µM); MIC [6]: 0.007 µg/mL (≈ 0.0133 µM); MIC [7]: 0.195 µg/mL (≈ 0.371 µM); MIC [9]: 0.049 µg/mL (≈ 0.0932 µM); MIC [10]: 0.013 µg/mL (≈ 0.0247 µM)
–	–	–	–	–	–	–	–	–	–	CC(=O)O[C@H]1CN(C(=O)[C@@H]2C[C@H](SC3=C(C(=O)O)N4C(=O)[C@H]([C@@H](C)O)[C@H]4[C@H]3C)CN2)C[C@@H]1OC(C)=O (stereo in doubt; 1f) [listing 2 of 2 here]	66	–

Compound	MIC [1, 20] [µg/mL]	MIC [2, 21] [µg/mL]	MIC [3, 22] [µg/mL]	MIC [4, 23] [µg/mL]	MIC [5, 24] [µg/mL]	MIC [6, 25] [µg/mL]	MIC [7, 21] [µg/mL]	MIC [8] [µg/mL]	MIC [9, 26] [µg/mL]	MIC [10, 27] [µg/mL]	Stability [11] [%]	other results
CC(=O)O[C@H]1CN(C(=O)[C@@H]2C[C@H](SC3=C(C(=O)O)N4C(=O)[C@H]([C@@H](C)O)[C@H]4[C@H]3C)CN2)C[C@@H]1OC(C)=O (stereo in doubt; 1a) [listing 1 of 2 here]	0.098 (≈ 0.186 µM)	–	6.25 (≈ 11.9 µM)	0.013 (≈ 0.0247 µM)	0.049 (≈ 0.0932 µM)	0.007 (≈ 0.0133 µM)	0.098 (≈ 0.186 µM)	0.025 (≈ 0.0476 µM)	0.049 (≈ 0.0932 µM)	0.013 (≈ 0.0247 µM)	–	AUC [12]: 6830 ng·h/mL; MIC [2]: 0.195 µg/mL (≈ 0.371 µM); ED50 [13]: 2.18 mg/kg; half-life [14]: 15 min; Tmax [15]: 10.2 min; ED50 [16]: 3.93 mg/kg; Cmax [17]: 16600 ng/mL; ED50 [18]: 0.94 mg/kg; ED50 [19]: 4.79 mg/kg
C[C@@H](O)[C@H]1C(=O)N2C(C(=O)O)=C(SCCNC=N)C[C@H]12 [IMIPENEM ANHYDROUS]	0.013 (≈ 0.0434 µM)	0.781 (≈ 2.61 µM)	1.56 (≈ 5.22 µM)	0.098 (≈ 0.327 µM)	0.391 (≈ 1.31 µM)	0.004 (≈ 0.0134 µM)	0.195 (≈ 0.651 µM)	0.195 (≈ 0.651 µM)	0.781 (≈ 2.61 µM)	0.195 (≈ 0.651 µM)	19	–
C[C@@H](O)[C@H]1C(=O)N2C(C(=O)O)=C(S[C@@H]3CN[C@H](C(=O)N(C)C)C3)[C@H](C)[C@H]12 [MEROPENEM]	0.098 (≈ 0.256 µM)	0.195 (≈ 0.509 µM)	12.5 (≈ 32.6 µM)	0.013 (≈ 0.0339 µM)	0.049 (≈ 0.128 µM)	0.002 (≈ 0.00522 µM)	0.049 (≈ 0.128 µM)	0.025 (≈ 0.0652 µM)	0.025 (≈ 0.0652 µM)	0.025 (≈ 0.0652 µM)	100	AUC [12]: 6860 ng·h/mL; ED50 [13]: 11.1 mg/kg; half-life [14]: 16.2 min; Tmax [15]: 10.2 min; ED50 [16]: 4.26 mg/kg; Cmax [17]: 15600 ng/mL; ED50 [18]: 0.65 mg/kg; ED50 [19]: 4.55 mg/kg
